Test results reported in patent publication US9487510B2, “Substituted heterocyclic acetamides as kappa opioid receptor (KOR) agonists” (Dr. Reddy's Laboratories Ltd., priority 2012, dated 2016).

Experiments:
human KOR receptor = human KOR receptor (Homo sapiens, UniProt P41145); test: IP-One HTRF assay, potency of KOR agonists, dose-response in transiently transfected COS-7 cells; assay type: cell-based
Sequence of human KOR receptor (P41145 whole entry): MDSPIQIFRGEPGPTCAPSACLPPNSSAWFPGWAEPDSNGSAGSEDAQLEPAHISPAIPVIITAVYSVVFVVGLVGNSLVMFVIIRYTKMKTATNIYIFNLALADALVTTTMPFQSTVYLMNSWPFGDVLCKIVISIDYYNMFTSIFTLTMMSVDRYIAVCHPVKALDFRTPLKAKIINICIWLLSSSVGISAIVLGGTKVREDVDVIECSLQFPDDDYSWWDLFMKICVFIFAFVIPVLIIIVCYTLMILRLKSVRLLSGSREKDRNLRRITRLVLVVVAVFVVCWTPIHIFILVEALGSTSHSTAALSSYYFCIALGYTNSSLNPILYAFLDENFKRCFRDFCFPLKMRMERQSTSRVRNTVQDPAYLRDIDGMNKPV

Compound | EC50 (human KOR receptor) | melting point
CN(C(=O)Cc1ccc2oc(=O)n(C)c2c1)[C@H](CN1CCC(O)C1)c1cccc(-c2nn[nH]n2)c1 (stereo in doubt) [Example 107, N-((S)-1-(3-(2H-tetrazol-5-yl)phenyl)-2-((S)-3-hydroxypyrrolidin-1-yl)ethyl)-N-methyl-2-(3-methyl-2-oxo-2,3-dihydrobenzo[d]oxazol-5-yl)acetamide] | ≤ 50 nM | 130 to 132 °C
CN1C(=O)Cc2ccc(CC(=O)N(C)[C@H](CN3CCC(O)C3)c3cccc(-c4nn[nH]n4)c3)cc21 (stereo in doubt) [Example 111, N-((S)-1-(3-(2H-tetrazol-5-yl)phenyl)-2-((S)-3-hydroxypyrrolidin-1-yl)ethyl)-N-methyl-2-(1-methyl-2-oxoindolin-6-yl)acetamide] | ≤ 50 nM | 198 to 200 °C
CN(C(=O)Cc1ccc2c(c1)NC(=O)C2)[C@H](CN1CC[C@H](O)C1)c1ccccc1 [Example 1, N-((S)-2-((S)-3-hydroxypyrrolidin-1-yl)-1-phenylethyl)-N-methyl-2-(2-oxoindolin-6-yl)acetamide] | 51 to 100 nM | 166 to 168 °C
O=C(Cc1ccc2oc(=O)n(Cc3ccccc3)c2c1)N[C@H](CN1CCCC1)c1cccc(O)c1 [Example 20, (S)-2-(3-benzyl-2-oxo-2,3-dihydrobenzo [d]oxazol-5-yl)-N-(1-(3-hydroxyphenyl)-2-(pyrrolidin-1-yl)ethyl)acetamide] | ≤ 50 nM | 104 to 106 °C
N#Cc1cccc(Cn2c(=O)oc3ccc(CC(=O)N[C@H](CN4CCCC4)c4ccccc4)cc32)c1 [Example 46, (S)-2-(3-(3-cyanobenzyl)-2-oxo-2,3-dihydrobenzo[d]oxazol-5-yl)-N-(1-phenyl-2-(pyrrolidin-1-yl)ethyl)acetamide] | ≤ 50 nM | 109 to 110 °C
CN(C(=O)Cc1ccc2ccc(=O)[nH]c2c1)[C@H](CN1CCCC1)c1ccccc1 [Example 49, (S)-N-methyl-2-(2-oxo-1,2-dihydroquinolin-7-yl)-N-(1-phenyl-2-(pyrrolidin-1-yl)ethyl)acetamide] | ≥ 1000 nM | 170 to 172 °C
O=C(Cc1ccc2oc(=O)[nH]c2c1)N[C@H](CN1CCCC1)c1ccccc1 [Example 56, (S)-2-(2-oxo-2,3-dihydrobenzo[d]oxazol-5-yl)-N-(1-phenyl-2-(pyrrolidin-1-yl)ethyl) acetamide] | ≤ 50 nM | 129 to 130 °C
O=C(Cc1ccc2oc(=O)[nH]c2c1)N[C@H](CN1CC[C@H](O)C1)c1ccccc1 [Example 57, N-((S)-2-((S)-3-hydroxypyrrolidin-1-yl)-1-phenylethyl)-2-(2-oxo-2,3-dihydrobenzo[d]oxazol-5-yl)acetamide] | ≤ 50 nM | 210 to 211 °C
COc1ccc(COc2cccc([C@@H](CN3CCCC3)NC(=O)Cc3ccc4oc(=O)n(Cc5ccccc5)c4c3)c2)cc1 [Example 58, (S)-2-(3-benzyl-2-oxo-2,3-dihydrobenzo[d]oxazol-5-yl)-N-(1-(3-(4-methoxybenzyloxy)phenyl)-2-(pyrrolidin-1-yl)ethyl)acetamide] | ≤ 50 nM | 72 to 74 °C
N#Cc1ccc(Cn2c(=O)oc3ccc(CC(=O)N[C@H](CN4CC[C@H](O)C4)c4ccccc4)cc32)cc1 [Example 59, 2-(3-(4-cyanobenzyl)-2-oxo-2,3-dihydrobenzo[d]oxazol-5-yl)-N-((S)-2-((S)-3-hydroxypyrrolidin-1-yl)-1-phenylethyl)acetamide] | ≤ 50 nM | 194 °C
Cn1c(=O)oc2ccc(CC(=O)N[C@H](CN3CCCC3)c3ccccc3)cc21 [Example 61, (S)-2-(3-methyl-2-oxo-2,3-dihydrobenzo[d]oxazol-5-yl)-N-(1-phenyl-2-(pyrrolidin-1-yl)ethyl)acetamide] | 51 to 100 nM | 105 to 107 °C
